{"source": "patent US10294202B2", "about": "“Pyrrolidinones as herbicides” (FMC Corporation, priority 2013, dated 2019)", "key": {"[1]": {"test_system": "ragweed", "assay": "Test A pre-/postemergence herbicide test", "assay_type": "in vivo, Ambrosia elatior", "conditions": "for Plant response rating, Ragweed: 0 to 100 scale", "outline": "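Scoring was visual, relative to untreated controls, on a 0–100 scale after about 10 greenhouse days. Preemergence treatment used a directed soil spray over seeded loam/sand; postemergence treatment targeted one- to two-leaf plants of 2–10 cm.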"}, "[2]": {"test_system": "buckwheat, wild", "assay": "Test D pre-/postemergence herbicide test", "assay_type": "in vivo, Polygonum convolvulus", "conditions": "Preemergence; for Plant response rating, Buckwheat, Wild: scale 0 to 100 (0 no effect, 100 complete control)", "outline": "(§1)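 Test chemicals, formulated in a non-phytotoxic solvent mixture with surfactant, are sprayed preemergence onto seeds in silt loam and postemergence onto plants of 2–18 cm. Plants are held in a controlled growth environment for 7 to 21 days, then rated visually versus controls (0–100).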"}, "[3]": {"test_system": "foxtail, green", "assay": "Test D pre-/postemergence herbicide test", "assay_type": "in vivo, Setaria viridis", "conditions": "Preemergence; for Plant response rating, Foxtail, Green: scale 0 to 100 (0 no effect, 100 complete control)", "outline": "as §1"}, "[4]": {"test_system": "rice", "assay": "Test C flooded paddy test", "assay_type": "in vivo, Oryza sativa", "conditions": "Flood", "outline": "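Plants at the 2-leaf stage in pots flooded to 3 cm were treated by applying compound directly to the paddy water, with depth held throughout. After 13 to 15 days in a greenhouse, response was rated visually against controls on a 0 (no effect) to 100 (complete control) scale.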"}, "[5]": {"test_system": "blackgrass", "assay": "Test A postemergence herbicide test", "assay_type": "in vivo, Alopecurus myosuroides", "outline": "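Potted in loam soil/sand blend; postemergence application at 1–2 leaf stage (2–10 cm). Greenhouse ~10 d. Visual injury vs untreated, 0–100 scale; 100 = complete control.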"}}}
{"smiles": "O=C1NC[C@H](c2cccc(C(F)(F)F)c2)[C@H]1C(=O)Nc1cccc(F)c1F", "note": "[Compound 206]", "values": [{"measurement": "Plant response rating, Ragweed", "setting": "[1]; 125 g ai/ha, visual rating, 0 no effect, 100 complete control, approximately 10 days, preemergence", "result": 60}, {"measurement": "Plant response rating, Ragweed", "setting": "[1]; Postemergence, 125 g ai/ha, 0 is no effect, 100 is complete control", "result": 0}, {"measurement": "Ragweed plant response rating (0 to 100 scale, 0 is no effect, 100 is complete control)", "setting": "[1]; Postemergence, 500 g ai/ha", "result": 50}, {"measurement": "Plant response rating, Ragweed", "setting": "[1]; preemergence, 500 g ai/ha, 0 is no effect and 100 is complete control", "result": 70}, {"measurement": "Plant response rating, Buckwheat, Wild", "setting": "[2]; 62 g ai/ha", "result": 65}, {"measurement": "Plant response rating, Buckwheat, Wild", "setting": "[2]; 125 g ai/ha", "result": 50}, {"measurement": "Plant response rating, Buckwheat, Wild", "setting": "[2]; 31 g ai/ha", "result": 45}, {"measurement": "Plant response rating", "setting": "[2]; 250 g ai/ha, Buckwheat, Wild, scale 0 to 100", "result": 55}, {"measurement": "Plant response rating, Foxtail, Green", "setting": "[3]; 62 g ai/ha", "result": 95}, {"measurement": "Plant response rating, Foxtail, Green", "setting": "[3]; 125 g ai/ha", "result": 98}, {"measurement": "Plant response rating, Foxtail, Green", "setting": "[3]; 31 g ai/ha", "result": 85}, {"measurement": "Plant response rating", "setting": "[3]; 250 g ai/ha, Foxtail, Green, scale 0 to 100", "result": 98}, {"measurement": "Plant response rating, Rice", "setting": "[4]; 125 g ai/ha, scale of 0 to 100 where 0 is no effect and 100 is complete control, 13 to 15 days", "result": 0}, {"measurement": "Plant response rating, Rice", "setting": "[4]; 250 g ai/ha, scale of 0 to 100 where 0 is no effect and 100 is complete control, 13 to 15 days", "result": 0}, {"measurement": "Plant response rating, Rice", "setting": "[4]; 500 g ai/ha, scale 0 to 100", "result": 15}, {"measurement": "Plant response rating, Rice", "setting": "[4]; 1000 g ai/ha, scale 0 to 100", "result": 15}, {"measurement": "Plant response rating, Blackgrass", "setting": "[5]; 125 g ai/ha, 0 to 100 scale, 0 is no effect, 100 is complete control", "result": 70}, {"measurement": "Blackgrass plant response rating (0 to 100 scale, 0 is no effect, 100 is complete control)", "setting": "[5]; 500 g ai/ha", "result": 80}]}
